Experimental data reported in US9499570B2, “Boron containing small molecules” (priority 2010, dated 2016).
“Also recorded” adds a separate entry of the source.

System: Schistosoma mansoni schistosomula
Test: Schistosoma mansoni schistosomula phenotype screen in vitro
Conditions: First Set
Text: Puerto Rican isolates of S. mansoni using Biomphalaria glabrata snails and golden hamsters as intermediate and definitive hosts, respectively, were maintained and handled in the University of California-San Francisco Sandler Center for Tropical Medicine. Patent B. glabrata snails (6-8 weeks after exposure to 5-10 infectious miracidia) were induced to shed infective larvae (cercariae) under light stimulus into the surrounding water. Cercariae were washed in rounds of ice-cold water and concentrated through and over sieves of varying pore sizes. They were then mechanically sheared (separation of heads from tails) as described in Colley D G, et al. Exp Parasitol 1974, 35:44-51, in ice-cold Incomplete Medium 169 (as described in Basch P F. J Parasitol 1981, 67:179-185, minus FBS and antibiotics) by passing 15 times through a double headed 22-gauge syringe needle connected to two 10 mL syringes. The resulting cercarial heads (schistosomula) were separated from their tails by swirling in a petri dish. Concentrated schistosomula were added to a sterile 1.5 mL centrifuge tube and allowed to settle over ice. Schistosomula were transferred to a sterile environment and washed 4 times in Incomplete Medium 169 prior to plating.
Two sets of screening were performed. In the first set, compounds were screened against schistosomula and observations were made at 24 hours, 2 days, 3 days, 4 days, and 6 days. In the second set, compounds were screened against schistosomula with observations at 24 hours, 2 days, 3 days, and 4 days and adult worms at 7 hours, 24 hours, 4 days, and 6 days.
Plates contain 200 schistosomula/well in […] complete Basch medium and were maintained at 37° C. in a 5% CO2 atmosphere. All compounds were tested in duplicate with at least two experimental replicates. Compounds and control compounds were added to the plates using the Biomek FXp using 96-well disposable tips. Final concentration of DMSO in each well was 0.5%.
A semi-quantitative and controlled nomenclature for phenotypes that can arise as a result of compound insult to both schistosomula and adults was utilized (Abdulla M H, et al., PLoS Negl Trop Dis 2009, 3:e478). Phenotypes were recorded by visual inspection and on a flexible time basis but at least at 24 h and 4 day time-points in the case of large scale screening. […] To help eliminate bias, two screen analysts scored phenotypes ‘blind’ both to knowledge of the contents of each screening plate and the phenotypes scored by his/her colleague. Upon completing their individual assessments, each analyst's ‘hit sheet’ was then compared to derive a ‘consensus hit sheet’. Discrepancies in analysts' hit sheets were re-evaluated under the microscope to eventually make a consensus hit call.
Hyper-coiled and coiled represent a verbal description of the visual phenotype as compared to the DMSO control. The + and ++ and +++ means more of the phenotype which preceded it. The − means less of the phenotype which preceded it. Results

CC(C)Oc1nc(Oc2ccc3c(c2)COB3O)ccc1C#N [6-(1-Hydroxy-1,3-dihydro-benzo[c][1,2]oxaborol-5-yloxy)-2-isopropoxy-nicotinonitrile]
Schistosomula phenotype day 3: O+ and Deg-M (Deg-M=worms in morphological disarray but still living)
Schistosomula phenotype day 6: R O+ and Partial D (Partial D=partial killing of worm population)

CCOC(=O)c1ccc(Oc2ccc3c(c2)COB3O)c(Oc2cc(C#N)ccn2)c1 [5-[4-Ethoxycarbonyl-2-(4-cyanopyridin-2-yloxy)phenoxy]-1,3-dihydro-1-hydroxy-2,1-benzoxaborole]
Schistosomula phenotype day 2: O, (O=overactive); also recorded: deg-m
Schistosomula phenotype day 4: O, (O=overactive) and some and deg-m
Schistosomula phenotype day 6: R, O,; also recorded: Partial D (Partial D=partial killing of worm population)

N#Cc1ccc(Oc2ccc3c(c2)COB3O)nc1N1CCCC1 [6-(1-Hydroxy-1,3-dihydro-benzo[c][1,2]oxaborol-5-yloxy)-2-pyrrolidin-1-yl-nicotinonitrile]
Schistosomula phenotype day 3: O+ and Deg-M (Deg-M=worms in morphological disarray but still living)
Schistosomula phenotype day 6: R O and Partial D (Partial D=partial killing of worm population)

COCCN(C)c1nc(Oc2ccc3c(c2)COB3O)ccc1C#N [6-(1-hydroxy-1,3-dihydro-benzo[c][1,2]oxaborol-5-yloxy)-2-[(2-methoxy-ethyl)-methyl-amino]-nicotinonitrile]
Schistosomula phenotype day 3: O+ and Deg-M (Deg-M=worms in morphological disarray but still living)
Schistosomula phenotype day 6: R O and Partial D (Partial D=partial killing of worm population)

CCCCOC(=O)c1ccc(Oc2ccc3c(c2)COB3O)nc1 [n-Butyl 6-(1-hydroxy-1,3-dihydrobenzo[c][1,2]oxaborol-5-yloxy)nicotinate]
Schistosomula phenotype day 2: (strong); also recorded: O, deg-m
Schistosomula phenotype day 4: deg-m,; also recorded: (shrunk); also recorded: O, R,
Schistosomula phenotype day 6: deg-m; also recorded: O, R, D,

N#Cc1ccc(Oc2ccc3c(c2)COB3O)nc1NCCOCc1ccccc1 [2-(2-Benzyloxy-ethylamino)-6-(1-hydroxy-1,3-dihydro-benzo[c][1,2]oxaborol-5-yloxy)-nicotinonitrile]
Schistosomula phenotype 24 h: O+ and some and deg-M
Schistosomula phenotype day 3: O+ and Deg-M (Deg-M=worms in morphological disarray but still living)
Schistosomula phenotype day 6: R O+ and Partial D (Partial D=partial killing of worm population)

CCCOC(=O)c1ccc(Oc2ccc3c(c2)COB3O)nc1 [n-Propyl 6-(1-hydroxy-1,3-dihydrobenzo[c][1,2]oxaborol-5-yloxy)nicotinate]
Schistosomula phenotype day 2: O+ and (shrunk)
Schistosomula phenotype day 6: O, R,; also recorded: Partial D (Partial D=partial killing of worm population)

CC(=O)OCCOc1nc(Oc2ccc3c(c2)COB3O)ccc1C#N [6-(1-Hydroxy-1,3-dihydro-benzo[c][1,2]oxaborol-5-yloxy)-2-(acetyloxyethoxy)-nicotinonitrile]
Schistosomula phenotype day 3: O+ and partial D
Schistosomula phenotype day 6: R O+ and Partial D (Partial D=partial killing of worm population)

N#Cc1ccc(Oc2ccc3c(c2)COB3O)cc1C(F)(F)F [5-(4-Cyano-3-trifluoromethylphenoxy)-1,3-dihydro-1-hydroxy-2,1-benzoxaborole]
Schistosomula phenotype day 2: O−, and deg-m−
Schistosomula phenotype day 4: O, (O=overactive) and some and deg-m
Schistosomula phenotype day 6: O, (O=overactive) and some and deg-m

N#Cc1ccc(Oc2ccc3c(c2)COB3O)c(OC2CCCC2)c1 [3-(Cyclopentyloxy)-4-(1-hydroxy-1,3-dihydrobenzo[c][1,2]oxaborol-5-yloxy)benzonitrile]
Schistosomula phenotype 24 h: O++ and deg-M
Schistosomula phenotype day 3: O+ and Partial D (Partial D=partial killing of worm population)
Schistosomula phenotype day 6: R deg- and M D

N#Cc1ccc(Oc2ccc3c(c2)COB3O)c(OCC2CCCC2)c1 [3-(Cyclopentylmethoxy)-4-(1-hydroxy-1,3-dihydrobenzo[c][1,2]oxaborol-5-yloxy)benzonitrile]
Schistosomula phenotype day 4: R O− and Deg-M D

CCOC(=O)c1ccc(Oc2ccc3c(c2)COB3O)nc1OCC [Ethyl 2-ethoxy-6-(1-hydroxy-1,3-dihydrobenzo[c][1,2]oxaborol-5-yloxy)nicotinate]
Schistosomula phenotype day 2: (shrunk)
Schistosomula phenotype day 4: O, (O=overactive); also recorded: deg-m
Schistosomula phenotype day 6: R, (R=round); also recorded: Partial D (Partial D=partial killing of worm population)

CCOC(=O)c1cnc(Oc2ccc3c(c2)COB3O)c(Cl)c1 [Ethyl 5-chloro-6-(1-hydroxy-1,3-dihydrobenzo[c][1,2]oxaborol-5-yloxy)nicotinate]
Schistosomula phenotype day 6: R O and deg-M and partial D

N#Cc1ccc(Oc2ccc3c(c2)COB3O)nc1OCC(F)(F)F [6-(1-Hydroxy-1,3-dihydro-benzo[c][1,2]oxaborol-5-yloxy)-2-(2,2,2-trifluoro-ethoxy)-nicotinonitrile]
Schistosomula phenotype day 6: O+ R and Partial D (Partial D=partial killing of worm population)

N#Cc1ccc(Oc2ccc3c(c2)COB3O)nc1NCc1ccccc1 [2-Benzylamino-6-(1-hydroxy-1,3-dihydro-benzo[c][1,2]oxaborol-5-yloxy)-nicotinonitrile]
Schistosomula phenotype 24 h: O++ and some and deg-M
Schistosomula phenotype day 6: R O and Partial D (Partial D=partial killing of worm population)

CC(=O)NCc1ccc(Oc2ccc3c(c2)COB3O)cc1 [N-[4-(1-Hydroxy-1,3-dihydro-benzo[c][1,2]oxaborol-5-yloxy)-benzy]-acetamide]
Schistosomula phenotype day 4: D (D=dead)

N#Cc1ccc(Oc2ccc3c(c2)COB3O)nc1OCC(F)F [2-(2,2-Difluoro-ethoxy)-6-(1-hydroxy-1,3-dihydro-benzo[c][1,2]oxaborol-5-yloxy)-nicotinonitrile]
Schistosomula phenotype day 3: O+ and Deg-M (Deg-M=worms in morphological disarray but still living)
Schistosomula phenotype day 6: R O+ and Partial D (Partial D=partial killing of worm population)

CCOc1nc(Oc2ccc3c(c2)COB3O)ccc1C#N [2-Ethoxy-6-(1-hydroxy-1,3-dihydro-benzo[c][1,2]oxaborol-5-yloxy)-nicotinonitrile]
Schistosomula phenotype day 3: O+ and partial D
Schistosomula phenotype day 6: O+ R and Partial D (Partial D=partial killing of worm population)

CC(C)COc1nc(Oc2ccc3c(c2)COB3O)ccc1C#N [6-(1-Hydroxy-1,3-dihydro-benzo[c][1,2]oxaborol-5-yloxy)-2-isobutoxy-nicotinonitrile]
Schistosomula phenotype 24 h: R− and O−
Schistosomula phenotype day 4: R (R=round) and O−

Cl.N#Cc1ccc(Oc2ccc3c(c2)COB3O)c(OCc2ccccn2)c1 [2-((5-Cyano-2-(1-hydroxy-1,3-dihydrobenzo[c][1,2]oxaborol-5-yloxy)phenoxy)methyl)pyridine hydrochloride]
Schistosomula phenotype 24 h (hydrochloride): R (R=round) and O++
Schistosomula phenotype day 2 (hydrochloride): O+, and M−
Schistosomula phenotype day 4 (hydrochloride): O+, and Partial D (Partial D=partial killing of worm population)
Schistosomula phenotype day 6 (hydrochloride): O+, and Partial and D, R

CCCOc1nc(Oc2ccc3c(c2)COB3O)ccc1C#N [6-(1-Hydroxy-1,3-dihydro-benzo[c][1,2]oxaborol-5-yloxy)-2-propoxy-nicotinonitrile]
Schistosomula phenotype day 3: O+ and Deg-M (Deg-M=worms in morphological disarray but still living)
Schistosomula phenotype day 6: R O and partial D

N#Cc1cnc(Oc2ccc3c(c2)COB3O)cc1OCCOC1CCCCO1 (stereo not shown) [6-(1-Hydroxy-1,3-dihydro-benzo[c][1,2]oxaborol-5-yloxy)-4-[2-(tetrahydro-pyran-2-yloxy)-ethoxy]-nicotinonitrile]
Schistosomula phenotype 24 h: O++ and deg-M
Schistosomula phenotype day 3: O++ and deg-M
Schistosomula phenotype day 6: Deg-M D
